For one test, the target named is Cat L (UniProt P07711). The test can be described thus: Cathepsin enzyme inhibition assay (fluorogenic peptide substrate Z-Val-Val-Arg-AMC), Cathepsin L. Particulars: enzyme 1 nM, substrate 20 μM, pH 6.5; read-out: CatL IC50. Type of test: biochemical, human and mouse. Summed up: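 Cathepsin L at 1 nM was mixed with compound, then started with 20 μM Z-Val-Val-Arg-AMC in pH 6.5 potassium phosphate with EDTA, Triton X-100 and 5 mM DTT. AMC fluorescence (ex 360/em 465 nm) was followed over 20 min. IC50 is given in μM.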

Another test concerns the target Cathepsin S (UniProt P25774). Description: Cathepsin enzyme inhibition assay (fluorogenic peptide substrate Z-Val-Val-Arg-AMC), Cathepsin S. Type of test: biochemical, human and mouse. Particulars: enzyme 1 nM, substrate 20 μM, pH 6.5; read-out: CatS IC50. Summed up: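 Human or mouse cathepsin S (1 nM) was run in 100 mM potassium phosphate pH 6.5 with 5 mM EDTA, 0.001% Triton X-100 and 5 mM DTT. The rise in AMC fluorescence from cleavage was measured, and IC50 values were calculated by standard methods and expressed in μM.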

Bounds are passed on as bounds.

For 22 compounds, IC50 results are on record in patent US8163793B2, “Proline derivatives” (Hoffman-La Roche Inc., priority 2009, dated 2012).

`N#CC1(NC(=O)[C@H]2C[C@@H](S(=O)(=O)c3ccc(N4CCOCC4)cc3Cl)CN2C(=O)C2(C(F)(F)F)CC2)CC1` [Example 162, (2R,4R)-4-(2-Chloro-4-morpholin-4-yl-benzenesulfonyl)-1-(1-trifluoromethyl-cyclopropanecarbonyl)-pyrrolidine-2-carboxylic acid (1-cyano-cyclopropyl)-amide]: the IC50 (as a rule, the concentration needed to halve the response being measured) on Cat L is not below 25000 nM; at Cathepsin S it was 23.5 nM.
Regarding `N#CC1(NC(=O)[C@@H]2C[C@@H](S(=O)(=O)c3ccc(N4CCNCC4)cc3Cl)CN2C(=O)C2(C(F)(F)F)CC2)CC1` [Example 163, (2S,4R)-4-(2-Chloro-4-piperazin-1-yl-benzenesulfonyl)-1-(1-trifluoromethyl-cyclopropanecarbonyl)-pyrrolidine-2-carboxylic acid (1-cyano-cyclopropyl)-amide formiate], the IC50 at Cat L worked out at 2620 nM; at Cathepsin S, 0.3 nM.
The like results for `N#CCNC(=O)[C@@H]1C[C@@H](S(=O)(=O)c2ccccc2C(F)(F)F)CN1c1ccccc1[N+](=O)[O-]` [Example 164, (2S,4R)-1-(2-Nitro-phenyl)-4-(2-trifluoromethyl-benzenesulfonyl)-pyrrolidine-2-carboxylic acid cyanomethyl-amide] were, in that order, not below 25000 nM and 0.8 nM.
Take `N#CC1(NC(=O)[C@H]2C[C@@H](S(=O)(=O)c3ccc(-n4cccn4)cc3Cl)CN2C(=O)C2(C(F)(F)F)CC2)CC1` [Example 165, (2R,4R)-4-(2-Chloro-4-pyrazol-1-yl-benzenesulfonyl)-1-(1-trifluoromethyl-cyclopropanecarbonyl)-pyrrolidine-2-carboxylic acid (1-cyano-cyclopropyl)-amide]: the IC50 at Cat L was not below 25000 nM; at Cathepsin S, 110 nM.
The like results for `N#CC1(NC(=O)[C@@H]2C[C@@H](S(=O)(=O)c3ccccc3C(F)(F)F)CN2c2ccccc2[N+](=O)[O-])CC1` [Example 166, (2S,4R)-1-(2-Nitro-phenyl)-4-(2-trifluoromethyl-benzenesulfonyl)-pyrrolidine-2-carboxylic Acid (1-cyano-cyclopropyl)-amide] were, in that order, not below 25000 nM and 0.6 nM.
Take `N#CC1(NC(=O)[C@@H]2C[C@@H](S(=O)(=O)c3ccc(Cl)cc3Cl)CN2c2ccccc2[N+](=O)[O-])CC1` [Example 167, (2S,4R)-4-(2,4-Dichloro-benzenesulfonyl)-1-(2-nitro-phenyl)-pyrrolidine-2-carboxylic acid (1-cyano-cyclopropyl)-amide]: the IC50 at Cat L is 17400 nM; at Cathepsin S, 1.4 nM.
Consider `N#CC1(NC(=O)[C@@H]2C[C@@H](S(=O)(=O)c3ccc(Cl)cc3Cl)CN2C(=O)C2(C(F)(F)F)CC2)CC1` [Example 168, (2S,4R)-4-(2,4-Dichloro-benzenesulfonyl)-1-(1-trifluoromethyl-cyclopropanecarbonyl)-pyrrolidine-2-carboxylic acid (1-cyano-cyclopropyl)-amide], for which the IC50 on Cat L is 8800 nM; on Cathepsin S, 0.6 nM.
In the case of `N#CC1(NC(=O)[C@@H]2C[C@@H](S(=O)(=O)c3ccc(Cl)cc3Cl)CN2C(=O)C2(C(F)(F)F)CCC2)CC1` [Example 169, (2S,4R)-4-(2,4-Dichloro-benzenesulfonyl)-1-(1-trifluoromethyl-cyclobutanecarbonyl)-pyrrolidine-2-carboxylic acid (1-cyano-cyclopropyl)-amide], the IC50 on Cat L is 7580 nM; on Cathepsin S, 0.4 nM.
The like results for `N#CC1(NC(=O)[C@@H]2C[C@@H](S(=O)(=O)c3ccc(Cl)cc3Cl)CN2C(=O)C2CC2(F)F)CC1` (stereo partly drawn) [Example 170, (2S,4R)-4-(2,4-Dichloro-benzenesulfonyl)-1-(2,2-difluoro-cyclopropanecarbonyl)-pyrrolidine-2-carboxylic acid (1-cyano-cyclopropyl)-amide] were, in that order, 18400 nM and 1 nM.
For the compound `CC(C)(C)OC(=O)N1C[C@H](S(=O)(=O)c2ccc(OCC(F)(F)F)cc2Cl)C[C@H]1C(=O)NC1(C#N)CC1` [Example 171, (2S,4R)-4-[2-Chloro-4-(2,2,2-trifluoro-ethoxy)-benzenesulfonyl]-2-(1-cyano-cyclopropylcarbamoyl)-pyrrolidine-1-carboxylic acid tert.-butyl ester], the IC50 was not below 25000 nM at Cat L and 7 nM at Cathepsin S.
Regarding `N#CC1(NC(=O)[C@@H]2C[C@@H](S(=O)(=O)c3ccc(OCC(F)(F)F)cc3Cl)CN2C(=O)C2(C(F)(F)F)CC2)CC1` [Example 172, (2S,4R)-4-[2-Chloro-4-(2,2,2-trifluoro-ethoxy)-benzenesulfonyl]-1-(1-trifluoromethyl-cyclopropanecarbonyl)-pyrrolidine-2-carboxylic acid (1-cyano-cyclopropyl)-amide], the IC50 turned out to be 8930 nM at Cat L and 0.4 nM at Cathepsin S.
On to `N#CC1(NC(=O)[C@H]2CC(S(=O)(=O)c3ccc(OCC(F)(F)F)cc3Cl)CN2)CC1` (stereo partly drawn) [Example 173, (R)-4-[2-Chloro-4-(2,2,2-trifluoro-ethoxy)-benzenesulfonyl]-pyrrolidine-2-carboxylic acid (1-cyano-cyclopropyl)-amide], for which the IC50 came to 27300 nM on Cat L and 5.9 nM on Cathepsin S.
On the same counts, the results for `CC(C)(C)OC(=O)N1C[C@H](S(=O)(=O)c2ccc(OC3COC3)cc2Cl)C[C@H]1C(=O)NC1(C#N)CC1` [Example 174, (2S,4R)-4-[2-Chloro-4-(oxetan-3-yloxy)-benzenesulfonyl]-2-(1-cyano-cyclopropylcarbamoyl)-pyrrolidine-1-carboxylic acid tert.-butyl ester] are 41500 nM and 3.3 nM.
The like results for `CC1(C(=O)N2C[C@H](S(=O)(=O)c3ccc(OCC(F)(F)F)cc3Cl)C[C@H]2C(=O)NC2(C#N)CC2)CC1` [Example 175, (2S,4R)-4-[2-Chloro-4-(2,2,2-trifluoro-ethoxy)-benzenesulfonyl]-1-(1-methyl-cyclopropanecarbonyl)-pyrrolidine-2-carboxylic acid (1-cyano-cyclopropyl)-amide] were, in that order, 15900 nM and 0.49 nM.
In the case of `CC(C)(C)C(=O)N1C[C@H](S(=O)(=O)c2ccc(OCC(F)(F)F)cc2Cl)C[C@H]1C(=O)NC1(C#N)CC1` [Example 176, (2S,4R)-4-[2-Chloro-4-(2,2,2-trifluoro-ethoxy)-benzenesulfonyl]-1-(2,2-dimethyl-propionyl)-pyrrolidine-2-carboxylic acid (1-cyano-cyclopropyl)-amide], the IC50 on Cat L came to 35800 nM; at Cathepsin S it was 0.98 nM.
On the same counts, the results for `N#CC1(NC(=O)[C@@H]2C[C@@H](S(=O)(=O)c3ccc(OCC(F)(F)F)cc3Cl)CN2C(=O)c2ccccc2C(F)(F)F)CC1` [Example 177, (2S,4R)-4-[2-Chloro-4-(2,2,2-trifluoro-ethoxy)-benzenesulfonyl]-1-(2-trifluoromethyl-benzoyl)-pyrrolidine-2-carboxylic acid (1-cyano-cyclopropyl)-amide] are 5830 nM and 0.29 nM.
The like results for `N#CC1(NC(=O)[C@@H]2C[C@@H](S(=O)(=O)c3ccc(OCC(F)(F)F)cc3Cl)CN2C(=O)C2(c3ccc(Cl)cc3)CC2)CC1` [Example 178, (2S,4R)-1-[1-(4-Chloro-phenyl)-cyclopropanecarbonyl]-4-[2-chloro-4-(2,2,2-trifluoro-ethoxy)-benzenesulfonyl]-pyrrolidine-2-carboxylic acid (1-cyano-cyclopropyl)-amide] were, in that order, 36 nM and 0.16 nM.
On the same counts, the results for `CC(C)C(=O)N1C[C@H](S(=O)(=O)c2ccc(OCC(F)(F)F)cc2Cl)C[C@H]1C(=O)NC1(C#N)CC1` [Example 179, (2S,4R)-4-[2-Chloro-4-(2,2,2-trifluoro-ethoxy)-benzenesulfonyl]-1-isobutyryl-pyrrolidine-2-carboxylic acid (1-cyano-cyclopropyl)-amide] are 17600 nM and 0.42 nM.
In the case of `CC(C)CC(=O)N1C[C@H](S(=O)(=O)c2ccc(OCC(F)(F)F)cc2Cl)C[C@H]1C(=O)NC1(C#N)CC1` [Example 180, (2S,4R)-4-[2-Chloro-4-(2,2,2-trifluoro-ethoxy)-benzenesulfonyl]-1-(3-methyl-butyryl)-pyrrolidine-2-carboxylic acid (1-cyano-cyclopropyl)-amide], the IC50 on Cat L worked out at 21400 nM; at Cathepsin S it was 0.47 nM.
On the same counts, the results for `N#CC1(NC(=O)[C@@H]2C[C@@H](S(=O)(=O)c3ccc(OC4COC4)cc3Cl)CN2)CC1` [Example 181, (2S,4R)-4-[2-Chloro-4-(oxetan-3-yloxy)-benzenesulfonyl]-pyrrolidine-2-carboxylic acid (1-cyano-cyclopropyl)-amide] are 16500 nM and 3.7 nM.
Take `N#CC1(NC(=O)C2C[C@@H](S(=O)(=O)c3ccc(OCC(F)(F)F)cc3Cl)CN2C=O)CC1` (stereo partly drawn) [Example 182, (R)-4-[2-Chloro-4-(2,2,2-trifluoro-ethoxy)-benzenesulfonyl]-1-formyl-pyrrolidine-2-carboxylic Acid (1-cyano-cyclopropyl)-amide]: the 50% inhibitory concentration (IC50) is not below 25000 nM on Cat L and 9.7 nM at Cathepsin S.
The like results for `C[C@H](Oc1ccc(S(=O)(=O)[C@@H]2C[C@@H](C(=O)NC3(C#N)CC3)N(C(=O)C3(C(F)(F)F)CC3)C2)c(Cl)c1)C(F)(F)F` [Example 183, (2S,4R)-4-[2-Chloro-4-((S)-2,2,2-trifluoro-1-methyl-ethoxy)-benzenesulfonyl]-1-(1-trifluoromethyl-cyclopropanecarbonyl)-pyrrolidine-2-carboxylic acid (1-cyano-cyclopropyl)-amide] were, in that order, 9670 nM and 0.44 nM.
